{"source": "patent US8632982B2", "about": "“Biomarkers for liver injury” (Institute for Systems Biology, priority 2009, dated 2014)", "tested_on": "C57BL6/J mice", "assay": "Murine model: liver damage induced with acetaminophen, serum markers by SPR antibody array and Western blot", "format": "in vivo", "conditions": "male C57BL6/J mice, 300 mg/kg intraperitoneally", "description": "The effectiveness of various proteins as markers was tested by inducing liver damage in mice using acetaminophen and then assessing serum for various proteins by surface plasmon resonance (SPR) detection of complex formation with the relevant antibody and confirmed by Western blot. The known marker, AST, was used as a control.\nNine week old male C57BL6/J mice were fasted for 24 hours and then administered 300 mg/kg acetaminophen intraperitoneally. The mice were euthanized with CO2 and whole blood was collected via cardiac puncture at various time intervals. The whole blood was incubated at 4° C. for 12 hours and centrifuged at 2,000 g for 10 minutes to obtain serum which was stored at −80° C. and then analyzed by SPR antibody array as described above and validated by Western blot. (The concentration of the known marker serum […] (AST) was determined by enzymatic assay.)"}
{"smiles": "CC(=O)Nc1ccc(O)cc1", "note": "[acetaminophen]", "values": [{"measurement": "plasma levels of plasminogen and RBP4 (Western blot, FIG. 3)", "setting": "12-24 hours", "value": "decrease"}, {"measurement": "serum levels of control marker AST (enzymatic assay)", "setting": "same time as the novel markers", "value": "corresponding increase"}, {"measurement": "plasma level of the 12 markers whose level increases in the event of liver injury (Western blot, FIG. 3)", "setting": "fasted 24 hours, after 12-24 hours, after which the levels declined", "value": "elevated levels"}]}
